Laboratory results: paper PMC8761492 (Life Science Alliance, 2022)
Where two headings read alike, the source gives them in different places. Starred links: 1 amine or outer side, 2 acyl side, 3 side chain; linkers in the order of their positions; H or OH if unused. Positions of bridges follow the written chain, without caps; N, C: chain ends. Non-standard residues stand in square brackets, D forms with d. Residues, ends and D or L forms follow the SMILES beside them. *: point of attachment. X1 = CC[C@H](C)[C@@H](N[*:1])[C@@H](O)CC(=O)O[C@H](C(=O)[C@H](C)C(=O)[*:2])C(C)C; NMeY = CN[C@@H](Cc1ccc(O)cc1)C(=O)O; dNMeL = CN[C@H](CC(C)C)C(=O)O; Pyruvoyl = CC(=O)C(=O)*

Legend:
[1] = Plasma protein binding by equilibrium dialysis, human plasma; format: in vitro ADME; conditions: male, human; for recovery at 100 ng/mL / fraction unbound at 5 h, 100 ng/mL: nominal 100 ng/mL; for recovery at 500 ng/mL / fraction unbound at 5 h, 500 ng/mL: nominal 500 ng/mL
Description: (§1) The binding of plitidepsin to plasma proteins was determined in vitro at three concentrations (100, 250 and 500 ng/ml) in male rat, dog and human plasma ([53]).
(§2) Rat (CD), beagle dog, and human blood was collected at Aptuit Srl from at least three male donors, and plasma prepared by centrifuging blood at 2,000g, 4°C for 10 min. Human plasma was obtained from healthy and fasted male volunteers. Na-heparin was used as the anti-coagulant for all species. All plasma was stored at approximately −20°C and thawed only once, on the day of the experiment.
(§3) Plasma protein binding was assessed using Rapid Equilibrium Dialysis plates pre-loaded with equilibrium dialysis membrane inserts (MWCO ∼8 kD).
(§4) Separation of free compound from protein-bound material was achieved by dialysis of the sample through the membrane under appropriate shaking at 37°C. The suitability of equilibrium dialysis as a method for protein binding determination of plitidepsin was assessed.
Before experimentation, the time required to reach equilibrium was determined in male rat and human plasma at one concentration (250 ng/ml) and six selected time points (2, 3, 4, 5, 6, and 7 h) at 37°C.
Plitidepsin stability was assessed in plasma (all species) and PBS at two concentrations (100 and 500 ng/ml for plasma; 0.5 and 50 ng/ml for PBS) by comparing plitidepsin concentration in spiked and preincubated plasma before and after incubation at 37°C for 5 h as determined previously.

[2] = Plasma protein binding by equilibrium dialysis, rat plasma; format: in vitro ADME; conditions: male, CD, independent of drug concentration
Description: as §1, §2, §3, §4
Before experimentation, the time required to reach equilibrium was determined in male rat and human plasma at one concentration (250 ng/ml) and six selected time points (2, 3, 4, 5, 6, and 7 h) at 37°C. […]

COVID-19 = test: APLICOV-PC: six-point ordinal scale (post hoc); format: in vivo, human
Description: Although not specified in the protocol (so not captured in the CRF), post-hoc analysis was performed to categorize the status of each patient at baseline, on Days 7, 15, 31, and at time of discharge using the following 6-point ordinal scale (Wang et al 2020):
Hospital admission, not requiring supplemental oxygen
Hospital admission, requiring supplemental oxygen
Hospital admission, requiring high-flow nasal cannula or noninvasive mechanical ventilation
Hospital admission, requiring extracorporeal membrane oxygenation or invasive mechanical ventilation
The number and percentage of patients with at least 1-point and at least 2-point improvements from baseline was calculated for Days 7, 15, 31 and date of discharge.

[3] = plasma, single replicates, read-out: % Bound (converted)
[4] = plasma, single replicates, read-out: % Unbound

CC[C@H](C)[C@H]1NC(=O)[C@@H](NC(=O)[C@@H](CC(C)C)N(C)C(=O)[C@@H]2CCCN2C(=O)C(C)=O)[C@@H](C)OC(=O)[C@H](Cc2ccc(OC)cc2)N(C)C(=O)[C@@H]2CCCN2C(=O)[C@H](CC(C)C)NC(=O)[C@@H](C)C(=O)[C@H](C(C)C)OC(=O)C[C@@H]1O [Plitidepsin] (Pyruvoyl-P[dNMeL]T[X1]LP[NMeY](Me); ester 3-C)
fraction unbound ([1]; independent of drug concentration): 0.02 | recovery at 100 ng/mL ([1]; plasma, Mean ± SD): 84.3 ± 6.4% | fraction unbound at 5 h, 100 ng/mL ([1]; plasma, Mean ± SD, read-out: % Unbound): 0.017 ± 0.002 | recovery at 100 ng/mL ([1]; plasma, single replicates): 90.4% | fraction unbound at 5 h, 100 ng/mL [1, 3]: 0.014 | fraction unbound at 5 h, 100 ng/mL [1, 4]: 0.014 | recovery at 250 ng/mL ([1]; plasma, nominal 250 ng/mL, Mean ± SD): 77 ± 17.6% | fraction unbound at 5 h, 250 ng/mL ([1]; plasma, nominal 250 ng/mL, Mean ± SD, read-out: % Bound (converted)): 0.022 | fraction unbound at 5 h, 250 ng/mL ([1]; plasma, nominal 250 ng/mL, Mean ± SD, read-out: % Unbound): 0.022 ± 0.008 | fraction unbound at 5 h, 250 ng/mL ([1]; plasma, nominal 250 ng/mL, single replicates, read-out: % Bound (converted)): 0.03 | fraction unbound at 5 h, 250 ng/mL ([1]; plasma, nominal 250 ng/mL, single replicates, read-out: % Unbound): 0.03 | recovery at 500 ng/mL ([1]; plasma, mean, n=2): 80.4% | fraction unbound at 5 h, 500 ng/mL ([1]; plasma, mean, n=2, read-out: % Bound (converted)): 0.019 | fraction unbound at 5 h, 500 ng/mL ([1]; plasma, mean, n=2, read-out: % Unbound): 0.019 | recovery at 500 ng/mL ([1]; plasma, single replicates): 82% | fraction unbound at 5 h, 500 ng/mL [1, 3]: 0.019 | fraction unbound at 5 h, 500 ng/mL [1, 4]: 0.019 | fraction unbound [2]: 0.04 | 2 Hospital admission, not requiring supplemental oxygen (COVID-19; Day 4, 1.5 mg (N=14)): 28.6% | 3 Hospital admission, requiring supplemental oxygen (COVID-19; Day 4, 1.5 mg (N=14)): 57.1% | 4 Hospital admission, requiring high-flow nasal cannula or non-invasive mechanical ventilation (COVID-19; Day 4, 1.5 mg (N=14)): 14.3% | 2 Hospital admission, not requiring supplemental oxygen (COVID-19; Day 4, 2 mg (N=15)): 40% | 3 Hospital admission, requiring supplemental oxygen (COVID-19; Day 4, 2 mg (N=15)): 60% | 2 Hospital admission, not requiring supplemental oxygen (COVID-19; Day 4, 2.5 mg (N=15)): 33.3% | 3 Hospital admission, requiring supplemental oxygen (COVID-19; Day 4, 2.5 mg (N=15)): 66.7% | 2 Hospital admission, not requiring supplemental oxygen (COVID-19; Day 4, Total (N=44)): 34.1% | 3 Hospital admission, requiring supplemental oxygen (COVID-19; Day 4, Total (N=44)): 61.4% | 4 Hospital admission, requiring high-flow nasal cannula or non-invasive mechanical ventilation (COVID-19; Day 4, Total (N=44)): 4.5% | 1 Discharged (Alive) (COVID-19; Day 7, 1.5 mg (N=14)): 21.4% | 2 Hospital admission, not requiring supplemental oxygen (COVID-19; Day 7, 1.5 mg (N=14)): 21.4% | 3 Hospital admission, requiring supplemental oxygen (COVID-19; Day 7, 1.5 mg (N=14)): 35.7% | 4 Hospital admission, requiring high-flow nasal cannula or non-invasive mechanical ventilation (COVID-19; Day 7, 1.5 mg (N=14)): 21.4% | 1 Discharged (Alive) (COVID-19; Day 7, 2 mg (N=15)): 13.3% | 2 Hospital admission, not requiring supplemental oxygen (COVID-19; Day 7, 2 mg (N=15)): 20% | 3 Hospital admission, requiring supplemental oxygen (COVID-19; Day 7, 2 mg (N=15)): 66.7% | 1 Discharged (Alive) (COVID-19; Day 7, 2.5 mg (N=15)): 33.3% | 2 Hospital admission, not requiring supplemental oxygen (COVID-19; Day 7, 2.5 mg (N=15)): 20% | 3 Hospital admission, requiring supplemental oxygen (COVID-19; Day 7, 2.5 mg (N=15)): 26.7% | 4 Hospital admission, requiring high-flow nasal cannula or non-invasive mechanical ventilation (COVID-19; Day 7, 2.5 mg (N=15)): 20% | 1 Discharged (Alive) (COVID-19; Day 7, Total (N=44)): 22.7% | 2 Hospital admission, not requiring supplemental oxygen (COVID-19; Day 7, Total (N=44)): 20.5% | 3 Hospital admission, requiring supplemental oxygen (COVID-19; Day 7, Total (N=44)): 43.2% | 4 Hospital admission, requiring high-flow nasal cannula or non-invasive mechanical ventilation (COVID-19; Day 7, Total (N=44)): 13.6% | 1 Discharged (Alive) (COVID-19; Day 15, 1.5 mg (N=14)): 78.6% | 3 Hospital admission, requiring supplemental oxygen (COVID-19; Day 15, 1.5 mg (N=14)): 7.1% | 4 Hospital admission, requiring high-flow nasal cannula or non-invasive mechanical ventilation (COVID-19; Day 15, 1.5 mg (N=14)): 7.1% | 5 Hospital admission, requiring extracorporeal membrane oxygenation or invasive mechanical ventilation (COVID-19; Day 15, 1.5 mg (N=14)): 7.1% | 1 Discharged (Alive) (COVID-19; Day 15, 2 mg (N=15)): 93.3% | 5 Hospital admission, requiring extracorporeal membrane oxygenation or invasive mechanical ventilation (COVID-19; Day 15, 2 mg (N=15)): 6.7% | 1 Discharged (Alive) (COVID-19; Day 15, 2.5 mg (N=15)): 73.3% | 3 Hospital admission, requiring supplemental oxygen (COVID-19; Day 15, 2.5 mg (N=15)): 6.7% | 4 Hospital admission, requiring high-flow nasal cannula or non-invasive mechanical ventilation (COVID-19; Day 15, 2.5 mg (N=15)): 20% | 1 Discharged (Alive) (COVID-19; Day 15, Total (N=44)): 81.8% | 3 Hospital admission, requiring supplemental oxygen (COVID-19; Day 15, Total (N=44)): 4.5% | 4 Hospital admission, requiring high-flow nasal cannula or non-invasive mechanical ventilation (COVID-19; Day 15, Total (N=44)): 9.1% | 5 Hospital admission, requiring extracorporeal membrane oxygenation or invasive mechanical ventilation (COVID-19; Day 15, Total (N=44)): 4.5% | 1 Discharged (Alive) (COVID-19; Day 31, 1.5 mg (N=14)): 85.7% | 2 Hospital admission, not requiring supplemental oxygen (COVID-19; Day 31, 1.5 mg (N=14)): 7.1% | 6 Death (COVID-19; Day 31, 1.5 mg (N=14)): 7.1% | 1 Discharged (Alive) (COVID-19; Day 31, 2 mg (N=15)): 93.3% | 4 Hospital admission, requiring high-flow nasal cannula or non-invasive mechanical ventilation (COVID-19; Day 31, 2 mg (N=15)): 6.7% | 1 Discharged (Alive) (COVID-19; Day 31, 2.5 mg (N=15)): 80% | 2 Hospital admission, not requiring supplemental oxygen (COVID-19; Day 31, 2.5 mg (N=15)): 6.7% | 5 Hospital admission, requiring extracorporeal membrane oxygenation or invasive mechanical ventilation (COVID-19; Day 31, 2.5 mg (N=15)): 6.7% | 6 Death (COVID-19; Day 31, 2.5 mg (N=15)): 6.7% | 1 Discharged (Alive) (COVID-19; Day 31, Total (N=44)): 86.4% | 2 Hospital admission, not requiring supplemental oxygen (COVID-19; Day 31, Total (N=44)): 4.5% | 4 Hospital admission, requiring high-flow nasal cannula or non-invasive mechanical ventilation (COVID-19; Day 31, Total (N=44)): 2.3% | 5 Hospital admission, requiring extracorporeal membrane oxygenation or invasive mechanical ventilation (COVID-19; Day 31, Total (N=44)): 2.3% | 6 Death (COVID-19; Day 31, Total (N=44)): 4.5%
